Source: ChEMBL document CHEMBL5233266, “β-Carboline as a Privileged Scaffold for Multitarget Strategies in Alzheimer's Disease Therapy” (J Med Chem, 2021)
pIC50: −log10 of the molar value.

Assays:
[1] = molecular target: Histone deacetylase 1 (Homo sapiens, UniProt Q13547); assay: Inhibition of HDAC1 (unknown origin)
[2] = molecular target: Histone deacetylase 8 (Homo sapiens, UniProt Q9BY41); assay: Inhibition of HDAC8 (unknown origin)
[3] = molecular target: Histone deacetylase 4 (Homo sapiens, UniProt P56524); assay: Inhibition of HDAC4 (unknown origin)
Chain of Histone deacetylase 4 (P56524 whole entry): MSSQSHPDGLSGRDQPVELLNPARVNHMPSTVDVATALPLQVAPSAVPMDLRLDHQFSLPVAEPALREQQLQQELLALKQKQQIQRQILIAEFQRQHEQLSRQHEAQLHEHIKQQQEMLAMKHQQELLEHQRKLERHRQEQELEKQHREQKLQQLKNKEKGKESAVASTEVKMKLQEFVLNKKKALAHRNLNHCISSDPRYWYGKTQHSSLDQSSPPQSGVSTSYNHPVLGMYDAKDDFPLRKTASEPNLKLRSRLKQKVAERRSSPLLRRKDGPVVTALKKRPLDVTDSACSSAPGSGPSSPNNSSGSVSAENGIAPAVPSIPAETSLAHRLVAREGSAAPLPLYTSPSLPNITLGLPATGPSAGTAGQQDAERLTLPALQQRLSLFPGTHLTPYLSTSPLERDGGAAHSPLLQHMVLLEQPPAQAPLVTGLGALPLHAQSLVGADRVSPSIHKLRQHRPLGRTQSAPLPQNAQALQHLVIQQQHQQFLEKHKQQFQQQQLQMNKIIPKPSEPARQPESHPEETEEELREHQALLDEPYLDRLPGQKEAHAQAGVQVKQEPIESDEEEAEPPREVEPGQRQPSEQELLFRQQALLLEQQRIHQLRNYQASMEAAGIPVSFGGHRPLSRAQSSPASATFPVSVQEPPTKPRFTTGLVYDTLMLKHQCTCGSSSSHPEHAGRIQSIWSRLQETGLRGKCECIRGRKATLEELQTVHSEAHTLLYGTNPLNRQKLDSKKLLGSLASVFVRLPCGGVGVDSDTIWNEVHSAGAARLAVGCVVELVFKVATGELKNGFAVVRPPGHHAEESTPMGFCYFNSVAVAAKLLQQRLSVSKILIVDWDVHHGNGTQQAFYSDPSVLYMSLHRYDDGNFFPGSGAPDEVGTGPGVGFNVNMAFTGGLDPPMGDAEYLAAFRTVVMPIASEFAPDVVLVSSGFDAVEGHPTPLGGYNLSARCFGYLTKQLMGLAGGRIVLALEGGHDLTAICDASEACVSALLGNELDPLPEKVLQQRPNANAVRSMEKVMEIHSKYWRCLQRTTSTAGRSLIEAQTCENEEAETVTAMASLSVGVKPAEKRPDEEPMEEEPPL

Chain of Histone deacetylase 1 (Q13547 whole entry): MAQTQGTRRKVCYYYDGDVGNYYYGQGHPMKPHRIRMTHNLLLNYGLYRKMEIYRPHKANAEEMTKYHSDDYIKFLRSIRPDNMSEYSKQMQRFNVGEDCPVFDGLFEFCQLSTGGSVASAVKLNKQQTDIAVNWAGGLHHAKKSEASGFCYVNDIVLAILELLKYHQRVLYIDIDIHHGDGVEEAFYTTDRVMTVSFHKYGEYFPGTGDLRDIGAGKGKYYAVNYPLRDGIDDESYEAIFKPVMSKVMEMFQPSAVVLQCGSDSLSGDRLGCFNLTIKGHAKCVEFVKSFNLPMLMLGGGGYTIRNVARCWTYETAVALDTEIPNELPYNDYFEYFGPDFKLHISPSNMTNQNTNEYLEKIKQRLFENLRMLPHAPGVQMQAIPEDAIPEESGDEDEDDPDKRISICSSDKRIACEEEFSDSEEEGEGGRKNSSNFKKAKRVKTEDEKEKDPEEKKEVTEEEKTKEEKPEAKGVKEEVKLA
Chain of Histone deacetylase 8 (Q9BY41 whole entry): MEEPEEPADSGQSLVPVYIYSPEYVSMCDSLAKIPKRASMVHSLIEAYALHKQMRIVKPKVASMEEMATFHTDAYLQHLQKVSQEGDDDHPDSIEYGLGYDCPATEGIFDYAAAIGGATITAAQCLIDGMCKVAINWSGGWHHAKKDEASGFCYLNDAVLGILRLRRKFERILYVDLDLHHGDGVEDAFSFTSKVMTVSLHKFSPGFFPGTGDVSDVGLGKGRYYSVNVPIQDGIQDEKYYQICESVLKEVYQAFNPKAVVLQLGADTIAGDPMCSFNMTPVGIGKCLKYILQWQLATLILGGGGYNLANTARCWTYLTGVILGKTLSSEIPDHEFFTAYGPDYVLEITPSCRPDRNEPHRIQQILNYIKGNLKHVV

Q: Which results are given for `COc1ccc(-c2nc(C(=O)NCc3ccc(C(=O)NO)cc3)cc3c2[nH]c2ccccc23)cc1`?
A: pIC50 [1]: 8.39; pIC50 [2]: < 6.00; pIC50 [3]: < 6.00
